# Measured values from article PMC6584481, “Quercetin protects rats from catheter‐related Staphylococcus aureus infections by inhibiting coagulase activity” (Journal of Cellular and Molecular Medicine, 2019).
# What was measured:
# Format in all cases: binding
# [1] = biological target: Coagulase (Coa) (Staphylococcus aureus, UniProt P17855); assay: fluorescence spectroscopy quenching (KA); thermal shift of […]°C; plasma/blood coagulation inhibition with recombinant Coa; settings: read-out: WT-Coa (converted)
# [2] = biological target: T1, Coagulase (Coa) (Staphylococcus aureus, UniProt P17855, H230A); assay: fluorescence spectroscopy quenching (KA); settings: read-out: H228A (converted)
# T1 sequence (P17855 27-715 H230A): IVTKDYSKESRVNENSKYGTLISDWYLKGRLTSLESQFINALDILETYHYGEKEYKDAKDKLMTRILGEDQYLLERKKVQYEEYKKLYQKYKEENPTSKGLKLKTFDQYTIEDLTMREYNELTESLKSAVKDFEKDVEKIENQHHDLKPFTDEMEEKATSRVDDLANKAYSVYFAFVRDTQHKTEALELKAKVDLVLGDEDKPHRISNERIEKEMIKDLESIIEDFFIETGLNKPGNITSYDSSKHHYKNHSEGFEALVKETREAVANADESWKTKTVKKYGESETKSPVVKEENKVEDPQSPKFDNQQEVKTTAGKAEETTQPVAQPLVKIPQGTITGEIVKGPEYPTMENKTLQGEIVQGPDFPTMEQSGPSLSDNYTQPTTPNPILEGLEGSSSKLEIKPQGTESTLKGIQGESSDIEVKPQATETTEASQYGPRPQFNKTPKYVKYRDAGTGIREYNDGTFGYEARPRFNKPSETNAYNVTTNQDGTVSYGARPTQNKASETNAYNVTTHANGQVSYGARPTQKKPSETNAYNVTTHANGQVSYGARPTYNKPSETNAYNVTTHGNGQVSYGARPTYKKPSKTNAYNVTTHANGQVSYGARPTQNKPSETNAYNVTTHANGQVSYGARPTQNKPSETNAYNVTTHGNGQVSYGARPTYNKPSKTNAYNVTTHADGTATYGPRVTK
# [3] = biological target: T2, Coagulase (Coa) (Staphylococcus aureus, UniProt P17855, L223A); assay: fluorescence spectroscopy quenching (KA); settings: read-out: L221A (converted)
# T2 sequence (P17855 27-715 L223A): T1 sequence (P17855 27-715 H230A)
compound,measurement,setting,value
"O=c1c(O)c(-c2ccc(O)c(O)c2)oc2cc(O)cc(O)c12 [quercetin, 3,3′,4′,5,7‐pentahydroxyflavone]",Kd,[1],21.7 µM
same,Kd,[2],25 µM
same,Kd,[3],32.3 µM
